Data on one compound can be found in patent US20260000620A1, “ORAL DOSAGE FORMS” (priority 2022, published 2026).

For series [1] the following is noted: dog, in vivo, iv.
Procedure: (§1) A dog PK study with terlipressin capsules was carried out essentially as described in Example 2. The key differences are as follows:
(§2) Test article administration: Animals were fasted for at least 12 hours prior to dosing and through the first 4 hours of blood sample collection (food was returned within 30 minutes following collection of the last blood sample at the 4 hour collection interval).
(§3) Intravenous administration: Animals in Phase 1 (groups 1 and 2) received a single iv of glypressin of 0.04 or 0.2 mg terlipressin base (0.24 or 1.2 mL/animal, respectively). Dosing was performed by 1 minute slow injection via the cephalic vein, using a catheter.
(§4) Blood collection: Blood samples (approximately 3 mL/sample) were collected from the jugular vein in the following time points:
(§5) Blood samples were placed into tubes containing K2EDTA. The samples were centrifuged under refrigerated (2 to 8° C.) conditions within 30 minutes of sample collection and the resulting plasma was separated and split into two approximately equal aliquots. Each plasma sample was placed into pre-chilled tubes that were placed on dry ice until frozen at −60° to −90° C. Bioanalysis was performed for plasma concentrations of both terlipressin and LVP.
(§6) Bioanalysis of plasma samples was performed using a LC-MS/MS method for quantitation of terlipressin and [Lys8]—Vasopressin in Dog Plasma.
Another series can be described thus: in vivo. The conditions noted are these: beagle, dog, iv.

Positions of bridges follow the written chain, without caps; N, C: chain ends. Residues, ends and D or L forms follow the SMILES beside them.

Procedure for in vivo: as §1, §2, §3, §4, §5, §6

Take `NCCCC[C@H](NC(=O)[C@@H]1CCCN1C(=O)[C@@H]1CSSC[C@H](NC(=O)CNC(=O)CNC(=O)CN)C(=O)N[C@@H](Cc2ccc(O)cc2)C(=O)N[C@@H](Cc2ccccc2)C(=O)N[C@@H](CCC(N)=O)C(=O)N[C@@H](CC(N)=O)C(=O)N1)C(=O)NCC(N)=O` [terlipressin, triglycyl lysine vasopressin] (H-GGGCYFQNCPKG-NH2; disulfide 4-9): the “increase of both LVP AUCs from 0.04 mg to 0.2 mg” value in series [1] was 3.7 fold. In the series “in vivo” (0.04 mg), the total exposure AUC(0-inf) (commonly the area under the concentration-time curve extrapolated to infinity) is 1.77 ng·h/mL; the exposure AUC(0-t) – broadly, exposure summed from dosing to a finite time, without extrapolation to infinity – was determined as 1.82 ng·h/mL; the peak level (Cmax) was 12.6 ng/mL; the Tmax (commonly the time at which the peak concentration occurs) was 4.98 min. The half-life – broadly, the time in which the quantity being followed falls by half – in “in vivo” (0.04 mg) was 4.44 min. In the series “in vivo” (0.2 mg), the AUC(0-inf) amounted to 9.14 ng·h/mL, the exposure AUC(0-t) was found to be 9.13 ng·h/mL, the Cmax (commonly the maximum level reached in the sampled fluid or tissue) was found to be 59.1 ng/mL and the time of peak concentration (Tmax) amounted to 4.02 min. In the series “in vivo” (0.2 mg), this compound gave a half-life of 13.9 min.
